# Columns and labels:
# [1] = Metabolic stability evaluation in human liver microsomes; type: in vitro ADME; conditions: for half-life of the deuterated prodrug: metabolized abiraterone of the prodrug, liver microsomes, versus abiraterone acetate; for half-life of the deuterated prodrug / clearance compared to the non-deuterated compound / half-life compared to the non-deuterated compound: in words; for clearance compared to the non-deuterated compound / half-life compared to the non-deuterated compound / half-life at 1 μM / microsomal CLint at 1 μM: human liver microsome; for half-life at 1 μM / microsomal CLint at 1 μM: human liver microsomes, pH 7.4, 1 μM compound, 0.5 mg/mL protein
# Description: Experiments in microsomes: Human liver microsomes: 0.5 mg/mL, Xenotech; Coenzyme (NADPH/NADH): 1 mM, Sigma Life Science; Magnesium chloride: 5 mM, 100 mM phosphate buffer (pH 7.4).
# Preparation of stock solution: Powder of the example compound was accurately weighed and dissolved in DMSO to 5 mM.
# Preparation of phosphate buffer (100 mM, pH7.4): A pre-formulated 0.5M potassium dihydrogen phosphate (150 mL) was mixed with 0.5M dibasic potassium phosphate (700 mL). The pH of the mixture was adjusted to 7.4 with 0.5M dibasic potassium phosphate solution. The mixture was diluted 5-fold with ultrapure water before use, and magnesium chloride was added to obtain a phosphate buffer (100 mM) containing 100 mM potassium phosphate, 3.3 mM magnesium chloride, pH 7.4.
# A NADPH regeneration system solution (containing 6.5 mM NADP, 16.5 mM G-6-P, 3 U/mL G-6-P D, 3.3 mM magnesium chloride) was prepared and placed on wet ice prior to use.
# Preparation of stop solution: acetonitrile solution containing 50 ng/mL propranolol hydrochloride and 200 ng/mL tolbutamide (internal standard). 25057.5 μL of phosphate buffer (pH 7.4) was taken into a 50 mL centrifuge tube, to which 812.5 μL human liver microsomes were added, and mixed to obtain a liver microsome dilution solution with a protein concentration of 0.625 mg/mL. 25057.5 μL of phosphate buffer (pH 7.4) was taken into a 50 mL centrifuge tube, to which 812.5 μL SD rat liver microsomes were added, and mixed to obtain a liver microsome dilution solution with a protein concentration of 0.625 mg/mL.
# Incubation of the samples: The stock solution of the respective compound was respectively diluted to 0.25 mM with an aqueous solution containing 70% acetonitrile, and used as a working solution, ready for use. 398 μL of the dilution solution of human liver microsomes or rat liver microsome were added to a 96-well incubation plate (N=2), respectively, and 2 μL of 0.25 mM working solution was added and mixed.
# Metabolic stability assay: 300 μL of pre-chilled stop solution was added to each well of a 96-well deep well plate and placed on ice as a stop plate. The 96 well incubation plate and NADPH regeneration system were placed in a 37° C. water bath box, shaken at 100 rpm and pre-incubated for 5 min. 80 μL of incubation solution was taken out from each well of the incubation plate and added to the stop plate, mixed, and replenished with 20 μL of NADPH regeneration system solution as a 0-min sample. 80 μL of NADPH regeneration system solution was added to each well of the incubation plate to start the reaction and start counting. […] Separately, 100 μL of the reaction solution was taken at 10, 30, and 90 min reaction, respectively, added to a stop plate, and vortexed for 3 minutes to terminate the reaction. The stop plate was centrifuged at 5000×g at 4° C. for 4 min. 100 μL of the supernatant was added to a 96-well plate to which 100 μL of distilled water was previously added, mixed, and analyzed by LC-MS/MS.
# Data analysis: The peak areas of the corresponding compound and internal standard were detected by LC-MS/MS system, and the ratio of the peak area of the compound to the internal standard was calculated.
# Human CYP17 [2] = biological target: T1, Human CYP17 (Homo sapiens, UniProt P05093); assay: CYP17 lyase assay; type: biochemical; set-up: made in house; host or cells: HEK293 cells (microsomes)
# T1 sequence (P05093 1-508): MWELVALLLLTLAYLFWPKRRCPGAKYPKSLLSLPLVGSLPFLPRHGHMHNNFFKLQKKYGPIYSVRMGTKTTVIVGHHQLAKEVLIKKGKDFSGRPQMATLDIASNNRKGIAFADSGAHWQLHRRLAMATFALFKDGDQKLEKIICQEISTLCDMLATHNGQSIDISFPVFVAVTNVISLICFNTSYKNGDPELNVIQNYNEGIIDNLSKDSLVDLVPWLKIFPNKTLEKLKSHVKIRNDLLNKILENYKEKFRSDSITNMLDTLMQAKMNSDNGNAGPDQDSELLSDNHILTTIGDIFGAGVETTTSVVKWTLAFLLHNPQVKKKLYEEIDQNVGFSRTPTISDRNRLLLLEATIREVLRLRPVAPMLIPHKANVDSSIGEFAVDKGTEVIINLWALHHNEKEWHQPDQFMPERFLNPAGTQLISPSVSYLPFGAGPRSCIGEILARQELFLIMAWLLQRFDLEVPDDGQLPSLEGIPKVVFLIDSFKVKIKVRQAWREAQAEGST
# Description: Human CYP17 was expressed in HEK293 cells and microsome were prepared, which was subsequently used as a source of enzyme for lyase assays. The reaction includes 200 nM [3H]-hydroxy pregnenolone (ARC), 200 nM 17-hydroxy pregnenolone (Sigma), 2 mM NADPH (Calbiochem), and CYP 17-HEK293 microsomes, which were incubated for 20 minutes at room temperature in the presence of DMSO or a test compound. Compounds were dissolved in DMSO and serially diluted. The reaction was stopped by the addition of 0.2N HCl and the product was captured using an anti-mouse YSi SPA Bead (GE) conjugated anti-DHEA monoclonal antibody (Abcam). The signal intensity determined by Packard Top Count was used to calculate the percent inhibition and IC50 values.
# Human CYP17 [3] = biological target: T1, Human CYP17; assay: CYP17 hydroxylase assay; type: biochemical; set-up: made in house; host or cells: E. coli (membrane preparation)
# Description: E. coli was transformed to express active human CYP17, and a membrane prepared from the transformed E. coli was used as a source of the enzyme. […] The reaction mixture was incubated at 37° C. for 120 minutes and 200 μL of 0.02 N HCl in acetonitrile was added to stop the reaction. The sample was then spun at […] and 200 μL of the supernatant was transferred to a clean tube for determination. The reaction product 17-alpha pregnenolone was measured by LC/MS.
# [4] = Pharmacokinetic evaluation in rats; type: in vivo; conditions: male, Sprague-Dawley, plasma, 5 mg/kg; rat, PO
# Description: 8 male Sprague-Dawley rats (7-8 weeks old, and weighing approximately 210 g) were divided into two groups with 4 rats in each group, a single oral dose of 5 mg/kg given to the two groups were (a) control group: (3β)-17-(3)-pyridyl)androst-5,16-dienol and (b) test group: Examples 1-13, and pharmacokinetic differences between the two groups were compared.
# The rats were raised on standard food and water. Fasting was started 16 hours before the test. The drug was dissolved with PEG400 and dimethyl sulfoxide. The blood samples were collected from eyelids at the time points of 0.083 hours, 0.25 hours, 0.5 hours, […], 2 hours, 4 hours, 6 hours, 8 hours, 12 hours, and 24 hours after administration.
# Rats were briefly anesthetized after inhalation of diethyl ether and 300 μL of blood sample was collected from the eyelids into test tubes. There was 30 μL of 1% heparin salt solution in the test tube. Tubes were dried at 60° C. overnight before use. After the blood sample was collected at a later time point, the rats were sacrificed after ether anesthesia.
# Immediately after the collection of the blood sample, the test tube was gently inverted at least 5 times to ensure sufficient mixing and then placed on ice. The blood sample was centrifuged at 5000 rpm at 4° C. for 5 minutes to separate the plasma from the red blood cells. 100 μL of plasma was aspirated into a clean plastic centrifuge tube with a pipette, marking with the name of the compound and time point. Plasma was stored at −80° C. prior to analysis. The concentration of the compound of the present disclosure in plasma was determined by LC-MS/MS. The pharmacokinetic parameters were calculated based on the blood concentration of each animal at different time points.
# [5] = Pharmacokinetic evaluation in rats; type: in vivo; conditions: male, Sprague-Dawley, plasma; rat, IV
# [6] = system: castration-resistant prostate cancer; conditions: patients, cited from earlier work
# [7] = CYP17-HEK293 microsomes, 20 minutes at room temperature, read-out: CYP17 lyase IC50
# [8] = hCYP17 E. coli membrane, 25 μM pregnenolone, 37° C. 120 minutes, read-out: CYP17 hydroxylase IC50
# [9] = abiraterone acetate plus prednisone
structure (smiles),measurement,setting,value
"[2H]C([2H])([2H])C(=O)O[C@H]1CC[C@@]2(C)C(=CCC3C2CC[C@]2(C)C(c4cccnc4)=CCC32)C1 (stereo partly drawn) [Example 4, (3β)-17-(3-pyridyl)androst-5,16-dienyl d3-acetate]",half-life of the deuterated prodrug,[1],significantly prolonged
"[2H]c1ccc(C2=CCC3C4CC=C5C[C@@H](O)CC[C@]5(C)C4CC[C@]23C)cn1 (stereo partly drawn) [Example 1, (3β)-17-(3-pyridyl-6-d)androst-5,16-dienol]",clearance compared to the non-deuterated compound,[1],reduced
same,half-life compared to the non-deuterated compound,[1],prolonged
same,half-life at 1 μM,[1],> 2.42 h
same,microsomal CLint at 1 μM,[1],< 9.6 µL/min/mg
same,IC50,Human CYP17 [2]; [7],< 10 nM
same,IC50,Human CYP17 [3]; [8],< 20 nM
"[2H]C1=C(c2cccnc2)[C@@]2(C)CCC3C(CC=C4C[C@@H](O)CC[C@@]43C)C2C1 (stereo partly drawn) [Example 8, (3β)-17-(3-pyridyl)androst-5,16-dienol-16-d]",clearance compared to the non-deuterated compound,[1],reduced
same,half-life compared to the non-deuterated compound,[1],prolonged
same,half-life at 1 μM,[1],0.855 h
same,microsomal CLint at 1 μM,[1],24.3 µL/min/mg
same,IC50,Human CYP17 [2],< 10 nM
same,IC50,Human CYP17 [3],< 20 nM
"[2H]c1cncc(C2=CCC3C4CC=C5C[C@@H](OC(C)=O)CC[C@]5(C)C4CC[C@]23C)c1 (stereo partly drawn) [Example 3, (3β)-17-(3-pyridyl-5-d)androst-5,16-dienyl Acetate]",half-life of the deuterated prodrug,[1],significantly prolonged
"[2H]c1cncc(C2=CCC3C4CC=C5C[C@@H](O)CC[C@]5(C)C4CC[C@]23C)c1 (stereo partly drawn) [Example 2, (3β)-17-(3-pyridyl-5-d)androst-5,16-dienol]",clearance compared to the non-deuterated compound,[1],reduced
same,half-life compared to the non-deuterated compound,[1],prolonged
same,half-life at 1 μM,[1],1.19 h
same,microsomal CLint at 1 μM,[1],19.5 µL/min/mg
same,IC50,Human CYP17 [2]; [7],< 10 nM
same,IC50,Human CYP17 [3]; [8],< 20 nM
"[2H]C1=C(c2cccnc2)[C@@]2(C)CCC3C(CC=C4C[C@@H](OC(=O)C([2H])([2H])[2H])CC[C@@]43C)C2C1 (stereo partly drawn) [Example 9, (3β)-17-(3-pyridyl)androst-5,16-dienyl-16-d d3-acetate]",AUC(0-inf),[4],2550 ng·h/mL
same,AUC(0-t),[4],2480 ng·h/mL
same,Cmax,[4],549 ng/mL
same,Tmax,[4],1.67 h
same,half-life of the deuterated prodrug,[1],significantly prolonged
same,Cmax,[5],43.6 ng/mL
same,Tmax,[5],17.3 h
"CC(=O)O[C@H]1CC[C@@]2(C)C(=CC[C@@H]3[C@@H]2CC[C@]2(C)C(c4cccnc4)=CC[C@@H]32)C1 [Abiraterone acetate, reference compound]",AUC(0-inf),[4],1320 ng·h/mL
same,AUC(0-t),[4],1290 ng·h/mL
same,Cmax,[4],506 ng/mL
same,Tmax,[4],1.33 h
same,AUC(0-inf),[5],192 ng·h/mL
same,AUC(0-t),[5],110 ng·h/mL
same,Cmax,[5],10.6 ng/mL
same,Tmax,[5],2 h
same,risk of death reduced,[6]; abiraterone acetate plus prednisone vs placebo plus prednisone,35%
same,Median survival,[6]; [9],14.8 months
same,Median survival longer than placebo plus prednisone,[6]; [9],3.9 months
"[2H]c1ccc(C2=CCC3C4CC=C5C[C@@H](OC(C)=O)CC[C@]5(C)C4CC[C@]23C)cn1 (stereo partly drawn) [Example 5, (3β)-17-(3-pyridyl-6-d)androst-5,16-dienyl Acetate]",AUC(0-inf),[4],2440 ng·h/mL
same,AUC(0-t),[4],2420 ng·h/mL
same,Cmax,[4],813 ng/mL
same,Tmax,[4],1.67 h
same,AUC(0-inf),[5],274 ng·h/mL
same,AUC(0-t),[5],224 ng·h/mL
same,Cmax,[5],24.1 ng/mL
same,Tmax,[5],3 h
"[2H]c1cncc(C2=CCC3C4CC=C5C[C@@H](OC(=O)C([2H])([2H])[2H])CC[C@]5(C)C4CC[C@]23C)c1 (stereo partly drawn) [Example 7, (3β)-17-(3-pyridyl-5-d)androst-5,16-dienyl d3-acetate]",half-life of the deuterated prodrug,[1],significantly prolonged
"C[C@]12CC[C@H](O)CC1=CC[C@@H]1[C@@H]2CC[C@]2(C)C(c3cccnc3)=CC[C@@H]12 [Abiraterone, (3β)-17-(3-pyridinyl)androst-5,16-dienol, reference compound]",half-life at 1 μM,[1],0.667 h
same,microsomal CLint at 1 μM,[1],34.7 µL/min/mg
same,IC50,Human CYP17 [2]; [7],< 10 nM

# From US10519193B2, “Steroidal compound, composition containing the same and use thereof” (Shenzhen TargetRx, Inc., priority 2016, dated 2019)
